Experimental data reported in patent publication US11178868B2, “Alkynyl-substituted 3-phenylpyrrolidine-2,4-diones and use thereof as herbicides” (Bayer CropScience Aktiengesellschaft, priority 2015, dated 2021).

Legend:
Type in all cases: in vivo
Alopecurus myosuroides [1] = assay: Pre-emergence herbicidal effect; settings: scored visually after 3 weeks
Description: (§1) Seeds of monocotyledonous and dicotyledonous weed plants and crop plants are laid out in wood-fibre pots in sandy loam and covered with soil. The compounds according to the invention formulated in the form of wettable powders (WP) or as emulsion concentrates (EC) are then applied as aqueous suspension or emulsion at a water application rate of 600 to 800 I/ha (converted) with the addition of 0.2% wetting agent to the surface of the covering soil. After the treatment, the pots are placed in a greenhouse and kept under good growth conditions for the trial plants. The damage to the test plants is scored visually after a test period of 3 weeks by comparison with untreated controls (herbicidal activity in percent (%): 100% activity=the plants have died, 0% activity=like control plants).

Setaria viridis [2] = assay: Pre-emergence herbicidal effect; settings: scored visually after 3 weeks
Description: as §1

Avena fatua [3] = assay: Pre-emergence herbicidal effect; settings: scored visually after 3 weeks
Description: as §1

Echinochloa crus-galli [4] = assay: Pre-emergence herbicidal effect; settings: scored visually after 3 weeks
Description: as §1

Alopecurus myosuroides [5] = assay: Post-emergence herbicidal effect; settings: assessed visually after about 3 weeks
Protocol: (§2) Seeds of monocotyledonous and dicotyledonous weed and crop plants are laid out in sandy loam in wood-fibre pots, covered with soil and cultivated in a greenhouse under good growth conditions. 2 to 3 weeks after sowing, the test plants are treated at the one-leaf stage. The compounds according to the invention, formulated in the form of wettable powders (WP) or as emulsion concentrates (EC), are then sprayed as aqueous suspension or emulsion at a water application rate of 600 to 800 I/ha (converted) with the addition of 0.2% of wetting agent onto the green parts of the plants. After the test plants have been left to stand in the greenhouse under optimal growth conditions for about 3 weeks, the action of the preparations is assessed visually in comparison to untreated controls (herbicidal action in percent (%): 100% activity=the plants have died, 0% activity=like control plants).

Avena fatua [6] = assay: Post-emergence herbicidal effect; settings: assessed visually after about 3 weeks
Protocol: as §2

Echinochloa crus-galli [7] = assay: Post-emergence herbicidal effect; settings: assessed visually after about 3 weeks
Protocol: as §2

Lolium multiflorum [8] = assay: Pre-emergence herbicidal effect; settings: scored visually after 3 weeks
Description: as §1

Setaria viridis [9] = assay: Post-emergence herbicidal effect; settings: assessed visually after about 3 weeks
Protocol: as §2

Lolium multiflorum [10] = assay: Post-emergence herbicidal effect; settings: assessed visually after about 3 weeks
Protocol: as §2

Compound | Herbicidal effect against [%] ALOMY (Alopecurus myosuroides [1]; 80 g a.i./ha) [%] | Herbicidal effect against [%] ALOMY (Alopecurus myosuroides [1]; 320 g a.i./ha) [%] | Herbicidal effect against [%] SETVI (Setaria viridis [2]; 80 g a.i./ha) [%] | Herbicidal effect against [%] SETVI (Setaria viridis [2]; 320 g a.i./ha) [%] | Herbicidal effect against [%] AVEFA (Avena fatua [3]; 80 g a.i./ha) [%] | Herbicidal effect against [%] AVEFA (Avena fatua [3]; 320 g a.i./ha) [%] | Herbicidal effect against [%] ECHCG (Echinochloa crus-galli [4]; 80 g a.i./ha) [%] | Herbicidal effect against [%] ECHCG (Echinochloa crus-galli [4]; 320 g a.i./ha) [%] | Herbicidal effect against [%] ALOMY (Alopecurus myosuroides [5]; 20 g a.i./ha) [%] | Herbicidal effect against [%] ALOMY (Alopecurus myosuroides [5]; 80 g a.i./ha) [%] | Herbicidal effect against [%] AVEFA (Avena fatua [6]; 20 g a.i./ha) [%] | Herbicidal effect against [%] AVEFA (Avena fatua [6]; 80 g a.i./ha) [%] | Herbicidal effect against [%] ECHCG (Echinochloa crus-galli [7]; 20 g a.i./ha) [%] | Herbicidal effect against [%] ECHCG (Echinochloa crus-galli [7]; 80 g a.i./ha) [%] | Herbicidal effect against [%] LOLMU (Lolium multiflorum [8]; 80 g a.i./ha) [%] | Herbicidal effect against [%] LOLMU (Lolium multiflorum [8]; 320 g a.i./ha) [%] | Herbicidal effect against [%] SETVI (Setaria viridis [9]; 20 g a.i./ha) [%] | Herbicidal effect against [%] SETVI (Setaria viridis [9]; 80 g a.i./ha) [%] | Herbicidal effect against [%] LOLMU (Lolium multiflorum [10]; 20 g a.i./ha) [%] | Herbicidal effect against [%] LOLMU (Lolium multiflorum [10]; 80 g a.i./ha) [%]
C#Cc1cc(CC)c(C2=C(O)C3(CCCC(OCCOC)C3)NC2=O)c(CC)c1 (stereo not drawn) [Example D10] | 90 | 100 | 100 | 100 | 90 | 100 | 100 | 100 | 90 | 90 | 80 | 90 | 90 | 90 | – | – | – | – | – | –
CC#Cc1cc(CC)c(C2=C(OC(=O)C(C)C)C3(CCCC(OCC)C3)NC2=O)c(CC)c1 (stereo not drawn) [Example P3] | 90 | 100 | 100 | 100 | – | 80 | 100 | 100 | – | – | – | – | – | 90 | 100 | 100 | – | – | – | –
C#Cc1cc(C)c(C2=C(OC(=O)OCC)C3(CCCC(OCCCC)C3)NC2=O)c(C)c1 (stereo not drawn) [Example P5] | 80 | 100 | 90 | 100 | – | 80 | 90 | 100 | – | – | – | – | – | – | 90 | 100 | – | – | – | –
C#Cc1cc(C)c(C2=C(OC(=O)C(C)C)C3(CCCC(OCCCC)C3)NC2=O)c(C)c1 (stereo not drawn) [Example P6] | – | 80 | – | 100 | – | – | – | 90 | – | – | – | – | – | – | – | 100 | – | – | – | –
CC#Cc1cc(CC)c(C2=C(OC(=O)C(C)C)C3(CCCC(OCCOC)C3)NC2=O)c(CC)c1 (stereo not drawn) [Example P12] | 100 | 100 | 100 | 100 | 100 | 100 | 100 | 100 | 100 | 100 | 100 | 100 | 100 | 100 | 100 | 100 | 100 | 100 | 100 | 100
